The target of the assay is Recombinant human IDO (Homo sapiens, UniProt P14902). Kind of assay: Bridge-IT tryptophan fluorescence assay of human IDO-1 inhibition. It is filed as biochemical. Conditions: recombinant human IDO 7.5 nM, L-tryptophan. The method in brief: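 Two protocol variants: 100 μM L-Trp for 90 min at 37 °C, or 30 min enzyme–compound pre-incubation at 25 °C, then 50 μM L-Trp for 60 min at 25 °C. Reaction stopped in Bridge-IT solution A for 30 min at 30 °C.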
Chain of Recombinant human IDO (P14902 whole entry): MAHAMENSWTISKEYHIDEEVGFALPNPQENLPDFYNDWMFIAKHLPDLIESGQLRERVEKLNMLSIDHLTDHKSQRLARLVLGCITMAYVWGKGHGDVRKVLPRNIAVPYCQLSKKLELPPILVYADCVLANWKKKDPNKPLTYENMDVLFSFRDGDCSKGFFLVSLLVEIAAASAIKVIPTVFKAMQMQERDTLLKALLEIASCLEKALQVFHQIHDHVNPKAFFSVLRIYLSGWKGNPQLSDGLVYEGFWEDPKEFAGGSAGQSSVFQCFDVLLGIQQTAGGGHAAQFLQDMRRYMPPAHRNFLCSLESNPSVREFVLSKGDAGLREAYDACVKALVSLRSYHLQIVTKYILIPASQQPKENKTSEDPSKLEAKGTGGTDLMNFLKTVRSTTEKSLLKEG
Consider `NC(=O)C1CCC(F)(CCC2c3ccccc3-c3cncn32)CC1` (single isomer, unassigned) [Compound 79a, 4-fluoro-4-[2-[5H-imidazo[4,3-a]isoindol-5-yl]ethyl]cyclohexane-1-carboxamide], for which the IC50 is more than 1000 nM.
The result for `NC(=O)C1CCC(F)(CCC2c3ccccc3-c3cncn32)CC1` (single isomer, unassigned) [Compound 79b, 4-fluoro-4-[2-[5H-imidazo[4,3-a]isoindol-5-yl]ethyl]cyclohexane-1-carboxamide] reads more than 1000 nM; that for `NC(=O)C1CCC(F)(CCC2c3ccccc3-c3cncn32)CC1` (single isomer, unassigned) [Compound 79c, 4-fluoro-4-[2-[5H-imidazo[4,3-a]isoindol-5-yl]ethyl]cyclohexane-1-carboxamide], less than 100 nM; that for `NC(=O)C1CCC(F)(CCC2c3ccccc3-c3cncn32)CC1` (single isomer, unassigned) [Compound 79d, 4-fluoro-4-[2-[5H-imidazo[4,3-a]isoindol-5-yl]ethyl]cyclohexane-1-carboxamide], less than 100 nM.
To `O=C(O)C1CCC(F)(CCC2c3c(F)cccc3-c3cncn32)CC1` (single isomer, unassigned) [Compound 80a, 4-fluoro-4-(2-[6-fluoro-5H-imidazo[4,3-a]isoindol-5-yl]ethyl)cyclohexane-1-carboxylic acid] belongs less than 100 nM; to `O=C(O)C1CCC(F)(CCC2c3c(F)cccc3-c3cncn32)CC1` (single isomer, unassigned) [Compound 80b, 4-fluoro-4-(2-[6-fluoro-5H-imidazo[4,3-a]isoindol-5-yl]ethyl)cyclohexane-1-carboxylic acid], 100 to 1000 nM; to `NC(=O)C1CCC(F)(CCC2c3c(F)cccc3-c3cncn32)CC1` (single isomer, unassigned) [Compound 81a, 4-fluoro-4-[2-[6-fluoro-5H-imidazo[4,3-a]isoindol-5-yl]ethyl]cyclohexane-1-carboxamide], 100 to 1000 nM.
Turning to `NC(=O)C1CCC(F)(CCC2c3c(F)cccc3-c3cncn32)CC1` (single isomer, unassigned) [Compound 81b, 4-fluoro-4-[2-[6-fluoro-5H-imidazo[4,3-a]isoindol-5-yl]ethyl]cyclohexane-1-carboxamide], the IC50 was more than 1000 nM.
The result for `NC(=O)C1CCC(F)(CCC2c3c(F)cccc3-c3cncn32)CC1` (single isomer, unassigned) [Compound 81c, 4-fluoro-4-[2-[6-fluoro-5H-imidazo[4,3-a]isoindol-5-yl]ethyl]cyclohexane-1-carboxamide] reads less than 100 nM.
The result for `NC(=O)C1CCC(F)(CCC2c3c(F)cccc3-c3cncn32)CC1` (single isomer, unassigned) [Compound 81d, 4-fluoro-4-[2-[6-fluoro-5H-imidazo[4,3-a]isoindol-5-yl]ethyl]cyclohexane-1-carboxamide] reads less than 100 nM; that for `O=C(O)C1CCC(F)(CCC2c3ccccc3-c3cncn32)CC1` (single isomer, unassigned) [Compound 82a, 4-fluoro-4-(2-[5H-imidazo[4,3-a]isoindol-5-yl]ethyl)cyclohexane-1-carboxylic acid], less than 100 nM; that for `OC(CC1c2c(Cl)cccc2-c2cncn21)C1(F)CCCCC1` (single isomer, unassigned) [Compound 83a, 2-[6-chloro-5H-imidazo[4,3-a]isoindol-5-yl]-1-(1-fluorocyclohexyl)ethan-1-ol], more than 1000 nM.
To `OC(CC1c2c(Cl)cccc2-c2cncn21)C1(F)CCCCC1` (single isomer, unassigned) [Compound 83b, 2-[6-chloro-5H-imidazo[4,3-a]isoindol-5-yl]-1-(1-fluorocyclohexyl)ethan-1-ol] belongs 100 to 1000 nM; to `OC(CC1c2c(Cl)cccc2-c2cncn21)C1(F)CCCCC1` (single isomer, unassigned) [Compound 83c, 2-[6-chloro-5H-imidazo[4,3-a]isoindol-5-yl]-1-(1-fluorocyclohexyl)ethan-1-ol], more than 1000 nM; to `OC(CC1c2c(Cl)cccc2-c2cncn21)C1(F)CCCCC1` (single isomer, unassigned) [Compound 83d, 2-[6-chloro-5H-imidazo[4,3-a]isoindol-5-yl]-1-(1-fluorocyclohexyl)ethan-1-ol], less than 100 nM.
For the compound `OCC1CCC(F)(CCC2c3c(F)cccc3-c3cncn32)CC1` (single isomer, unassigned) [Compound 84a, [4-fluoro-4-[2-[6-fluoro-5H-imidazo[4,3-a]isoindol-5-yl]ethyl]cyclohexyl]methanol], the IC50 is more than 1000 nM.
The result for `OCC1CCC(F)(CCC2c3c(F)cccc3-c3cncn32)CC1` (single isomer, unassigned) [Compound 84b, [4-fluoro-4-[2-[6-fluoro-5H-imidazo[4,3-a]isoindol-5-yl]ethyl]cyclohexyl]methanol] reads more than 1000 nM; that for `OCC1CCC(F)(CCC2c3c(F)cccc3-c3cncn32)CC1` (single isomer, unassigned) [Compound 84c, [4-fluoro-4-[2-[6-fluoro-5H-imidazo[4,3-a]isoindol-5-yl]ethyl]cyclohexyl]methanol], less than 100 nM; that for `OCC1CCC(F)(CCC2c3c(F)cccc3-c3cncn32)CC1` (single isomer, unassigned) [Compound 84d, [4-fluoro-4-[2-[6-fluoro-5H-imidazo[4,3-a]isoindol-5-yl]ethyl]cyclohexyl]methanol], less than 100 nM.
For the compound `OC(CC1c2ncccc2-c2cncn21)C1(F)CCC(F)(F)CC1` (single isomer, unassigned) [Compound 87a, 2-[4,6,9-triazatricyclo[6.4.0.0^[2,6]]dodeca-1(8),2,4,9,11-pentaen-7-yl]-1-(1,4,4-trifluorocyclohexyl)ethan-1-ol], the IC50 was more than 1000 nM.
As for `OC(CC1c2ncccc2-c2cncn21)C1(F)CCC(F)(F)CC1` (single isomer, unassigned) [Compound 87b, 2-[4,6,9-triazatricyclo[6.4.0.0^[2,6]]dodeca-1(8),2,4,9,11-pentaen-7-yl]-1-(1,4,4-trifluorocyclohexyl)ethan-1-ol], the IC50 was more than 1000 nM.
The result for `OC(CC1c2ncccc2-c2cncn21)C1(F)CCC(F)(F)CC1` (single isomer, unassigned) [Compound 87c, 2-[4,6,9-triazatricyclo[6.4.0.0^[2,6]]dodeca-1(8),2,4,9,11-pentaen-7-yl]-1-(1,4,4-trifluorocyclohexyl)ethan-1-ol] reads more than 1000 nM; that for `OC(CC1c2ncccc2-c2cncn21)C1(F)CCC(F)(F)CC1` (single isomer, unassigned) [Compound 87d, 2-[4,6,9-triazatricyclo[6.4.0.0^[2,6]]dodeca-1(8),2,4,9,11-pentaen-7-yl]-1-(1,4,4-trifluorocyclohexyl)ethan-1-ol], 100 to 1000 nM; that for `CC(C)(C)C(=O)N1CCC(C(O)CC2c3ncccc3-c3cncn32)CC1` (single isomer, unassigned) [Compound 88a, 1-[4-[1-hydroxy-2-[4,6,9-triazatricyclo[6.4.0.0^[2,6]]dodeca-1(8),2,4,9,11-pentaen-7-yl]ethyl]piperidin-1-yl]-2,2-dimethylpropan-1-one], more than 1000 nM.
Turning to `CC(C)(C)C(=O)N1CCC(C(O)CC2c3ncccc3-c3cncn32)CC1` (single isomer, unassigned) [Compound 88b, 1-[4-[1-hydroxy-2-[4,6,9-triazatricyclo[6.4.0.0^[2,6]]dodeca-1(8),2,4,9,11-pentaen-7-yl]ethyl]piperidin-1-yl]-2,2-dimethylpropan-1-one], the IC50 was more than 1000 nM.
To `CC(C)(C)C(=O)N1CCC(C(O)CC2c3ncccc3-c3cncn32)CC1` (single isomer, unassigned) [Compound 88c, 1-[4-[1-hydroxy-2-[4,6,9-triazatricyclo[6.4.0.0^[2,6]]dodeca-1(8),2,4,9,11-pentaen-7-yl]ethyl]piperidin-1-yl]-2,2-dimethylpropan-1-one] belongs more than 1000 nM; to `CC(C)(C)C(=O)N1CCC(C(O)CC2c3ncccc3-c3cncn32)CC1` (single isomer, unassigned) [Compound 88d, 1-[4-[1-hydroxy-2-[4,6,9-triazatricyclo[6.4.0.0^[2,6]]dodeca-1(8),2,4,9,11-pentaen-7-yl]ethyl]piperidin-1-yl]-2,2-dimethylpropan-1-one], more than 1000 nM.
To `CC(C)[C@H](N)C(=O)N1CCC(F)(CCC2c3ccccc3-c3cncn32)CC1` (single isomer, unassigned) [Compound 89a] belongs more than 1000 nM; to `CC(C)[C@H](N)C(=O)N1CCC(F)(CCC2c3ccccc3-c3cncn32)CC1` (single isomer, unassigned) [Compound 89b], more than 1000 nM.
With `FC1(CCC2c3c(Cl)cccc3-c3cncn32)CCC2(CC1)CC2` (single isomer, unassigned) [Compound 91a, 6-chloro-5-(2-[6-fluorospiro[2.5]octan-6-yl]ethyl)-5H-imidazo[4,3-a]isoindole], the IC50 is more than 1000 nM.
To `FC1(CCC2c3c(Cl)cccc3-c3cncn32)CCC2(CC1)CC2` (single isomer, unassigned) [Compound 91b, 6-chloro-5-(2-[6-fluorospiro[2.5]octan-6-yl]ethyl)-5H-imidazo[4,3-a]isoindole] belongs more than 1000 nM; to `OC(CC1c2ncccc2-c2cncn21)C1CCOCC1` (single isomer, unassigned) [Compound 92a, 1-(oxan-4-yl)-2-[4,6,9-triazatricyclo[6.4.0.0^[2,6]]dodeca-1(8),2,4,9,11-pentaen-7-yl]ethan-1-ol], more than 1000 nM; to `OC(CC1c2ncccc2-c2cncn21)C1CCOCC1` (single isomer, unassigned) [Compound 92b, 1-(oxan-4-yl)-2-[4,6,9-triazatricyclo[6.4.0.0^[2,6]]dodeca-1(8),2,4,9,11-pentaen-7-yl]ethan-1-ol], more than 1000 nM.

These data come from US9771370B2, “Compounds for the inhibition of indoleamine-2,3-dioxygenase” (Merck Patent GmbH, priority 2014, dated 2017).
